Results from patent publication US12624018B1, “Inhibitors of RIPK2 and medical uses thereof” (Odyssey Therapeutics, Inc., priority 2022, dated 2026).
pIC50: −log10 of the molar value.

Columns and labels:
human NOD2 signaling = experiment: Inhibition of human NOD2 signaling in HEK-Blue-hNOD2 cells (L18-MDP stimulated, SEAP reporter); format: cell-based; conditions: Homo sapiens, HEK-Blue hNOD2, HEK-Blue-hNOD2 cells, NOD2 ligand stimulation, SEAP reporter; read-out: hNOD2 IC50
Outline: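 Read-out is SEAP absorbance at 620 nm after 3 h QUANTI-Blue development of supernatant from HEK293 cells carrying NOD2 and a SEAP reporter (12500/well). Cells got compound (10 points, 3-fold dilutions) and 0.5 ng/mL L18-MDP for 24 h at 37 °C; percent inhibition vs stimulated/unstimulated controls, 4-parameter IC50.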

RIPK2 enzyme = molecular target: T1, RIPK2 enzyme (Homo sapiens, UniProt O43353); experiment: RIPK2 inhibition (ADP-Glo Kinase Assay); format: biochemical; conditions: RIPK2 5 nM, ATP 150 μM, MBP substrate, read-out: RIPK2 IC50
T1 construct: purchased Carna 09-128
Outline: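 Swine MBP substrate; compound and 5 nM RIPK2 first mixed for 30 min at room temperature; buffer pH 7.5 HEPES 50 mM with 10 mM MgCl2, 2 mM DTT, 1 mM EGTA, Brij-35, BSA.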

[1] = molecular target: T2, RIPK2 and XIAP protein-protein interaction (Homo sapiens, UniProt O43353); experiment: Inhibition of the interaction of RIPK2 with XIAP (NanoBRET in HEK293T cells); format: cell-based; conditions: RIPK2 HaloTag / XIAP NanoLuc, read-out: NanoBRET Scaffolding IC50
T2 construct: the N-terminus of full-length RIPK2 was appended with the HaloTag fusion protein; expressed in transfected cells; host or cells: HEK293T
Text: An assay measuring the RIPK2 and XIAP protein-protein interaction was generated using the NanoBRET protein:protein interaction system (Promega) which measures the energy transfer from a bioluminescent protein donor (NanoLuc fusion protein) to a fluorescent protein acceptor (Halotag fusion protein). In this assay, the C-terminus of full-length XIAP was appended with the NanoLuc fusion protein and the N-terminus of full-length RIPK2 was appended with the HaloTag fusion protein. Assay medium consisted of Opti-MEM I reduced serum medium with no phenol red plus 4% heat inactivated FBS. Transfection reagents were combined in a microfuge tube as follows: 400 μL of assay medium, 8 μL of vector with N-terminus of RIPK2 HaloTag fusion protein (vector concentration at 1 μg/μL), 0.8 μL of vector with C-terminus of XIAP NanoLuc fusion protein (vector concentration at 1 μg/μL), and 24 μL of FuGENE HD transfection reagent (Promega, catalogue number E2312). […] Test compounds were prepared into a 10 mM DMSO solution and were serially diluted into 10 points using a 3-fold dilution in a 384 well plate using a TECAN EV0200.
Method: HEK293T cells were transfected with the RIPK2 HaloTag fusion and XIAP NanoLuc fusion vectors in suspension. […] Transfection reagents were pre-mixed and incubated at room temperature for 30 minutes. Then the total transfection reagent mixture was added dropwise to the 16 mL cell suspension and mixed gently. 40 μL of the cells and transfection reagent suspension was plated into a white 384 well plate and incubated at 37° C. in a CO2 incubator for 24 hours. […] Lastly, a 3× solution of NanoBRET Nano-Glo substrate in Opti-MEM I reduced serum media (no phenol red; 20 μL total volume) was added to each well and incubated for 2-3 minutes at room temperature. The plate was then measured using 460 nm filter (donor emission) and 618 nm filter (acceptor emission) in an EnVision multimode plate reader (PerkinElmer). The NanoBRET ratio values were determined by dividing the acceptor emission value by the donor emission value for each sample.

T1 sequence (O43353 1-299 limits assumed): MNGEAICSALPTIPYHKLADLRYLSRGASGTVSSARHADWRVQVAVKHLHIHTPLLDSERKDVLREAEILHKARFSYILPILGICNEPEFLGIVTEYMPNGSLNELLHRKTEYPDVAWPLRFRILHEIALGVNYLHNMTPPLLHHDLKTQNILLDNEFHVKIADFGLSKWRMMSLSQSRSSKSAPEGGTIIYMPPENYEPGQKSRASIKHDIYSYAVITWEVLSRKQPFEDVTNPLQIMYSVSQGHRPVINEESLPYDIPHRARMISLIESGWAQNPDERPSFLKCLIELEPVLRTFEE
T2 sequence (O43353 whole entry, the tested form may be a part): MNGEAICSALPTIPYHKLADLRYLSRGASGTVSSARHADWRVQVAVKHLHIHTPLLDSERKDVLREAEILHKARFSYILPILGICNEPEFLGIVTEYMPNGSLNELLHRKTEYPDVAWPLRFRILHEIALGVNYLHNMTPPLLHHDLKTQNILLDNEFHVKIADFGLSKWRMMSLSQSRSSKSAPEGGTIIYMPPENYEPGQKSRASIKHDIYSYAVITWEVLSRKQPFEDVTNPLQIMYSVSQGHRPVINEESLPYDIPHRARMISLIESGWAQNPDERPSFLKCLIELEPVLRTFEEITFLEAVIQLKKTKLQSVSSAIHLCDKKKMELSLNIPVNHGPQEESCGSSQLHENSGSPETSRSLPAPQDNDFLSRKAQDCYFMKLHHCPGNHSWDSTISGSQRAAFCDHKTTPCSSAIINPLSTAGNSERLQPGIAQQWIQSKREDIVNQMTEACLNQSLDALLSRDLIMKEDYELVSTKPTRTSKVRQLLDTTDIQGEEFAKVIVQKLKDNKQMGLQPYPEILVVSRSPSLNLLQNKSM

| Compound | pIC50 (human NOD2 signaling) | pIC50 (RIPK2 enzyme) | pIC50 [1] |
| --- | --- | --- | --- |
| CNC(=O)c1ccc2nccc(Oc3c(C)cc(CC(=O)Nc4cnn(C(C)(C)C)c4)cc3C)c2c1 [Compound 506, 4-(4-(2-((1-(tert-butyl)-1H-pyrazol-4-yl)amino)-2-oxoethyl)-2,6-dimethylphenoxy)-N-methylquinoline-6-carboxamide] | 8.66 | > 8.60 | 7.13 |
| NC(=O)c1ccc2nccc(Oc3cc(F)c(CC(=O)Nc4cnn(C56CC(C5)C6)c4)cc3Cl)c2c1 [Compound 509, 4-(4-(2-((1-(bicyclo[1.1.1]pentan-1-yl)-1H-pyrazol-4-yl)amino)-2-oxoethyl)-2-chloro-5-fluorophenoxy)quinoline-6-carboxamide] | 7.85 | > 8.60 | 6.72 |
| CNC(=O)c1ccc2nccc(Oc3cc(F)c(CC(=O)Nc4cnn(C56CC(C5)C6)c4)cc3Cl)c2c1 [Compound 510, 4-(4-(2-((1-(bicyclo[1.1.1]pentan-1-yl)-1H-pyrazol-4-yl)amino)-2-oxoethyl)-2-chloro-5-fluorophenoxy)-N-methylquinoline-6-carboxamide] | 8.08 | > 8.60 | 6.76 |
| Cc1cc(CC(=O)Nc2cnn(C(C)(C)C)c2)c(F)cc1Oc1ccnc2ccc(C(=O)NC34CC(C3)C4)cc12 [Compound 513, N-(bicyclo[1.1.1]pentan-1-yl)-4-(4-(2-((1-(tert-butyl)-1H-pyrazol-4-yl)amino)-2-oxoethyl)-5-fluoro-2-methylphenoxy)quinoline-6-carboxamide] | 8.51 | > 8.60 | 7.46 |
| CNC(=O)c1ccc2nccc(Oc3c(C)cc(CC(=O)Nc4cnn(C(C)(C)C)c4)cc3Cl)c2c1 [Compound 515, 4-(4-(2-((1-(tert-butyl)-1H-pyrazol-4-yl)amino)-2-oxoethyl)-2-chloro-6-methylphenoxy)-N-methylquinoline-6-carboxamide] | 8.85 | > 8.60 | 6.77 |
| Cc1cc(CC(=O)Nc2cnn(C(C)(C)C)c2)cc(Cl)c1Oc1ccnc2ccc(C(N)=O)cc12 [Compound 516, 4-(4-(2-((1-(tert-butyl)-1H-pyrazol-4-yl)amino)-2-oxoethyl)-2-chloro-6-methylphenoxy)quinoline-6-carboxamide] | 9.00 | > 8.60 | 6.99 |
| CC1(NC(=O)c2ccc3nccc(Oc4cc(F)c(CC(=O)Nc5cnn(C(C)(C)C)c5)cc4Cl)c3c2)CC1 [Compound 517, 4-(4-(2-((1-(tert-butyl)-1H-pyrazol-4-yl)amino)-2-oxoethyl)-2-chloro-5-fluorophenoxy)-N-(1-methylcyclopropyl)quinoline-6-carboxamide] | 8.57 | > 8.60 | 6.51 |
| Cc1c(CC(=O)Nc2cnn(C(C)(C)C)c2)ccc(Oc2ccnc3ccc(S(C)(=O)=O)cc23)c1C [Compound 518, N-(1-(tert-butyl)-1H-pyrazol-4-yl)-2-(2,3-dimethyl-4-((6-(methylsulfonyl)quinolin-4-yl)oxy)phenyl)acetamide] | 8.82 | > 8.60 | 7.57 |
| Cc1cc(CC(=O)Nc2cnn(C(C)(C)C)c2)c(F)cc1Oc1ccnc2ccc(-c3nccnc3C(F)(F)F)cc12 [Compound 523, N-(1-(tert-butyl)-1H-pyrazol-4-yl)-2-(2-fluoro-5-methyl-4-((6-(3-(trifluoromethyl)pyrazin-2-yl)quinolin-4-yl)oxy)phenyl)acetamide] | 7.73 | 8.31 | 6.88 |
| Cc1c(Oc2ccnc3ccc(C(N)=O)cc23)cc(F)c(CC(=O)Nc2cnn(C34CC(C3)C4)c2)c1F [Compound 556, 4-(4-(2-((1-(bicyclo[1.1.1]pentan-1-yl)-1H-pyrazol-4-yl)amino)-2-oxoethyl)-3,5-difluoro-2-methylphenoxy)quinoline-6-carboxamide] | 9.05 | > 8.60 | 7.38 |
| CNC(=O)c1ccc2nccc(Oc3cc(F)c(CC(=O)Nc4cnn(C56CC(C5)C6)c4)c(F)c3C)c2c1 [Compound 557, 4-(4-(2-((1-(bicyclo[1.1.1]pentan-1-yl)-1H-pyrazol-4-yl)amino)-2-oxoethyl)-3,5-difluoro-2-methylphenoxy)-N-methylquinoline-6-carboxamide] | 9.52 | > 8.60 | 7.45 |
| [2H]C([2H])([2H])NC(=O)c1ccc2nccc(Oc3cc(F)c(CC(=O)Nc4cnn(C56CC(C5)C6)c4)c(F)c3C)c2c1 [Compound 558, 4-(4-(2-((1-(bicyclo[1.1.1]pentan-1-yl)-1H-pyrazol-4-yl)amino)-2-oxoethyl)-3,5-difluoro-2-methylphenoxy)-N-(methyl-d3)quinoline-6-carboxamide] | 9.15 | > 8.60 | 7.24 |
| Cc1cc(CC(=O)Nc2cnn(C(C)(C)C)c2)ccc1Oc1ccnc2ccc(CS(C)(=O)=O)cc12 [Compound 560, N-(1-(tert-butyl)-1H-pyrazol-4-yl)-2-(3-methyl-4-((6-((methylsulfonyl)methyl)quinolin-4-yl)oxy)phenyl)acetamide] | 8.05 | > 8.60 | 6.52 |

Second part, the molecule after the results:

| pIC50 (human NOD2 signaling) | pIC50 (RIPK2 enzyme) | pIC50 [1] | Compound |
| --- | --- | --- | --- |
| 8.92 | > 8.60 | 7.21 | Cc1c(Oc2ccnc3ccc(CS(C)(=O)=O)cc23)cc(F)c(CC(=O)Nc2cnn(C(C)(C)C)c2)c1F [Compound 562, N-(1-(tert-butyl)-1H-pyrazol-4-yl)-2-(2,6-difluoro-3-methyl-4-((6-((methylsulfonyl)methyl)quinolin-4-yl)oxy)phenyl)acetamide] |
| 7.95 | > 8.60 | 6.34 | Cc1cc(CC(=O)Nc2cnn(C(C)(C)C)c2)c(F)cc1Oc1ccnc2ccc(CC(N)=O)cc12 [Compound 566, 2-(4-((6-(2-amino-2-oxoethyl)quinolin-4-yl)oxy)-2-fluoro-5-methylphenyl)-N-(1-(tert-butyl)-1H-pyrazol-4-yl)acetamide] |
| 7.61 | > 8.60 | 6.75 | Cc1cc(CC(=O)Nc2cnn(C(C)(C)C)c2)c(F)cc1Oc1ccnc2ccc(C(C)(C)C(N)=O)cc12 [Compound 568, 2-(4-(4-(2-((1-(tert-butyl)-1H-pyrazol-4-yl)amino)-2-oxoethyl)-5-fluoro-2-methylphenoxy)quinolin-6-yl)-2-methylpropanamide] |
| 8.96 | > 8.60 | 7.43 | Cc1cc(CC(=O)Nc2cnn(C(C)(C)C)c2)c(F)cc1Oc1ccnc2ccc(C(F)(F)C(N)=O)cc12 [Compound 572, 2-(4-(4-(2-((1-(tert-butyl)-1H-pyrazol-4-yl)amino)-2-oxoethyl)-5-fluoro-2-methylphenoxy)quinolin-6-yl)-2,2-difluoroacetamide] |
| 9.22 | > 8.60 | 7.44 | CNC(=O)c1cc2c(Oc3c(C)cc(CC(=O)Nc4cnn(C(C)(C)C)c4)cc3C)ccnc2cc1F [Compound 582, 4-(4-(2-((1-(tert-butyl)-1H-pyrazol-4-yl)amino)-2-oxoethyl)-2,6-dimethylphenoxy)-7-fluoro-N-methylquinoline-6-carboxamide] |
| 8.92 | > 8.60 | 7.37 | [2H]C([2H])([2H])NC(=O)c1cc2c(Oc3c(C)cc(CC(=O)Nc4cnn(C(C)(C)C)c4)cc3C)ccnc2cc1F [Compound 583, 4-(4-(2-((1-(tert-butyl)-1H-pyrazol-4-yl)amino)-2-oxoethyl)-2,6-dimethylphenoxy)-7-fluoro-N-(methyl-d3)quinoline-6-carboxamide] |
| 8.89 | > 8.60 | 7.35 | Cc1cc(CC(=O)Nc2cnn(C(C)(C)C)c2)cc(Cl)c1Oc1ccnc2cc(F)c(C(N)=O)cc12 [Compound 584, 4-(4-(2-((1-(tert-butyl)-1H-pyrazol-4-yl)amino)-2-oxoethyl)-2-chloro-6-methylphenoxy)-7-fluoroquinoline-6-carboxamide] |
